Reference: ChEMBL document CHEMBL1201862, “PubChem BioAssay data set” (2004)
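Dose response: 5 concentrations. Exposure: 48 h. Format: 96-well plates. Endpoint: linear interpolation; highest concentration if not reached. GI50 marks 50% less growth.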 Active and inactive are the calls of the source. Cut-off read from the data, not from the text of the source: active = GI50 up to about 1.1 µM and inactive = higher.

Key:
Assay in all cases: NCI tumour cell line growth inhibition, 48 h
TK-10 = test system: TK-10
LXFL 529 = test system: LXFL 529
SK-MEL-2 = test system: SK-MEL-2
MOLT-4 = test system: MOLT-4
M19-MEL = test system: M19-MEL
IGROV-1 = test system: IGROV-1
NCI-H23 = test system: NCI-H23
EKVX = test system: EKVX
DMS-114 = test system: DMS-114
SNB-78 = test system: SNB-78
KM12 = test system: KM12
HCT-116 = test system: HCT-116
U-251 = test system: U-251
HL-60 = test system: HL-60
NCI-H460 = test system: NCI-H460
HT-29 = test system: HT-29
SK-MEL-28 = test system: SK-MEL-28
HCT-15 = test system: HCT-15
OVCAR-8 = test system: OVCAR-8
UACC-257 = test system: UACC-257
SF-268 = test system: SF-268
K562 = test system: K562
OVCAR-5 = test system: OVCAR-5
SR = test system: SR
SK-OV-3 = test system: SK-OV-3
SN12C = test system: SN12C
HOP-92 = test system: HOP-92
A498 = test system: A498
ACHN = test system: ACHN
HCC 2998 = test system: HCC 2998
RPMI-8226 = test system: RPMI-8226
A549 = test system: A549
M14 = test system: M14
SW-620 = test system: SW-620
UO-31 = test system: UO-31
CCRF-CEM = test system: CCRF-CEM
KM-20L2 = test system: KM-20L2
OVCAR-3 = test system: OVCAR-3
SK-MEL-5 = test system: SK-MEL-5
Malme-3M = test system: Malme-3M
NCI-H522 = test system: NCI-H522
SF-295 = test system: SF-295
DLD-1 = test system: DLD-1
COLO 205 = test system: COLO 205
SF-539 = test system: SF-539
XF498 = test system: XF498
UACC-62 = test system: UACC-62
SNB-19 = test system: SNB-19
LOX IMVI = test system: LOX IMVI
SNB-75 = test system: SNB-75

C/C(CCOC1CCCCO1)=C(\C)[Si](C)(C)C (stereo not given)
GI50 (TK-10): > 100 µM (inactive) | GI50 (LXFL 529): > 100 µM (inactive) | GI50 (SK-MEL-2): > 100 µM (inactive) | GI50 (MOLT-4): 72.8 µM (inactive) | GI50 (M19-MEL): > 100 µM (inactive) | GI50 (IGROV-1): > 100 µM (inactive) | GI50 (NCI-H23): > 100 µM (inactive) | GI50 (EKVX): > 100 µM (inactive) | GI50 (DMS-114): > 100 µM (inactive) | GI50 (SNB-78): > 100 µM (inactive) | GI50 (KM12): > 100 µM (inactive) | GI50 (HCT-116): > 100 µM (inactive) | GI50 (U-251): > 100 µM (inactive) | GI50 (HL-60): 93.3 µM (inactive) | GI50 (NCI-H460): > 100 µM (inactive) | GI50 (HT-29): > 100 µM (inactive) | GI50 (SK-MEL-28): > 100 µM (inactive) | GI50 (HCT-15): > 100 µM | GI50 (OVCAR-8): > 100 µM (inactive) | GI50 (UACC-257): > 100 µM (inactive) | GI50 (SF-268): > 100 µM (inactive) | GI50 (K562): > 100 µM (inactive) | GI50 (OVCAR-5): > 100 µM (inactive) | GI50 (SR): > 100 µM (inactive) | GI50 (SK-OV-3): > 10 µM (inactive) | GI50 (SN12C): > 100 µM (inactive) | GI50 (HOP-92): > 100 µM (inactive) | GI50 (A498): > 100 µM (inactive) | GI50 (ACHN): > 100 µM (inactive) | GI50 (HCC 2998): > 100 µM (inactive) | GI50 (RPMI-8226): > 100 µM (inactive) | GI50 (A549): > 100 µM (inactive) | GI50 (M14): > 100 µM (inactive) | GI50 (SW-620): > 100 µM (inactive) | GI50 (UO-31): > 100 µM (inactive) | GI50 (CCRF-CEM): 65.5 µM (inactive) | GI50 (KM-20L2): > 100 µM (inactive) | GI50 (OVCAR-3): > 100 µM (inactive) | GI50 (SK-MEL-5): > 100 µM (inactive) | GI50 (Malme-3M): > 100 µM (inactive) | GI50 (NCI-H522): > 100 µM (inactive) | GI50 (SF-295): > 100 µM (inactive) | GI50 (DLD-1): > 100 µM (inactive) | GI50 (COLO 205): > 100 µM (inactive) | GI50 (SF-539): > 100 µM (inactive) | GI50 (XF498): > 100 µM (inactive) | GI50 (UACC-62): > 100 µM (inactive) | GI50 (SNB-19): > 100 µM (inactive) | GI50 (LOX IMVI): > 100 µM (inactive) | GI50 (SNB-75): > 100 µM (inactive)
